According to patent publication US10357576B2, “18F-labelled folate/antifolate analogues” (MERCK & CIE, priority 2012, dated 2019):

Columns and labels:
[1] = Stability experiments using liver microsomes (mouse); assay type: in vitro ADME; settings: 37° C., 1 h, NADPH regenerating system, radio-UPLC
Description: (§1) General: Reagents and solvents were purchased from Sigma-Aldrich Chemie GmbH, Acros Organics or VWR International AG if nothing else is mentioned. All chemicals were used as supplied. Human and mouse (female CD-1) microsomes and the NADPH regenerating systems were purchased from BD biosciences.
(§2) Radio-UPLC: For stability studies, an ultra-performance liquid chromatography (UPLC™, Waters) system, equipped with an Acquity UPLC BEH C18 column (1.7 μm, 2.1×50 mm, Waters) and a coincidence detector (FlowStar LB513, Berthold) was used with following solvent system: eluent A was a NaH2PO4/Na2HPO4 buffer (0.05 M, pH 7.4) and eluent B was acetonitrile. A gradient from 0-4.0 min 100%-40% A, at a flow rate of 0.6 ml/min was used.
(§3) To a mixture of KH2PO4/K2HPO4 buffer (pH 7.4, 0.5 M, 200 μl), NADPH regenerating system A (50 μl), NADPH regenerating system B (10 μl), an aliquot of [^18F]-3′-aza-2′-fluorofolic acid (38 μl, approx. 15 MBq) was added and filled up with water (677 μl) to a volume of 975 μl and preincubated at 37° C. Then, mouse or human liver microsomes (20 mg/ml, 25 μl) were added and incubated at 37° C. After several time points (0, 20, 40 and 60 min) aliquots (100 μl) were drawn and the enzymatical reaction was stopped by purring the solution into ice-cold methanol (200 μl). […] Every time point was performed as a triplicate and analyzed on a radio-UPLC system. […]

[2] = Ex vivo metabolite studies in KB tumor bearing mice; settings: i.v., radio-UPLC
Protocol: as §2
For the determination of radiometabolites in vivo, 3′-aza-2′-[^18F]fluorofolic acid (60-70 MBq) was intravenously injected into KB tumor bearing mice (n=2). After 5 min, blood samples were drawn from the opposite vein and the animals were sacrificed 30 min after radiotracer injection. The whole blood, liver, tumor and urine were collected. Blood samples were centrifuged at 5000 g for 5 min at 4° C. The proteins of the plasma samples were precipitated by addition of the same volume of ice-cold methanol followed by centrifugation. The supernatants of the plasma and the urine sample were diluted with PBS buffer and analyzed by radio-UPLC. Liver and tumor tissue were homogenized in an equal volume of PBS using a PT 1200 C Polytron (Kinematica AG), respectively. After addition of the same volume of ice-cold MeOH, the mixture was centrifuged at 5000 g for 5 min and 4° C. The supernatant was cleared from remaining proteins by addition of ice-cold methanol, followed by centrifugation. The resulting supernatant fractions were diluted with PBS buffer and analyzed by radio-UPLC.

[3] = Log D7.4 determination, shake-flask method (n-octanol/PBS); assay type: physicochemical; settings: n-octanol/PBS pH 7.4, room temperature, n=10
Protocol: Determination of the Log D: Determination of the log D value was performed, using the shake-flask-method, where the partition coefficient of the radiotracer between n-octanol and phosphate buffered saline (PBS) was determined (Wilson et al. 2001 Applied Radiation and Isotopes). n-Octanol (0.5 ml) and PBS (0.5 ml) were mixed in an Eppendorf tube containing the radioactive sample (5-10 μl). Tubes were shaken for 15 min at room temperature in an over-head shaker and afterwards centrifuged (3 min, 5000 rpm). From each Eppendorf tube, 50 μl of each phase were transferred into a vial for counting in a γ-counter. The log D value was calculated according to the following equation: log D7.4=log [activity(octanol phase)/activity PBS phase)].
For log D7.4 determination a phosphate buffer was prepared, making a solution of KH2PO4 (1.743 g, 12.81 mmol) and Na2HPO4.2H2O (9.596 g, 53.91 mmol) in water (1000 ml). A saturated solution of phosphate buffer in n-octanol and a saturated solution of n-octanol in phosphate buffer were prepared. The PBS solution (500 μl) and n-octanol solution (500 μl) were pipetted into an Eppendorf tube and the radiotracer (5-10 μl) was added. The Eppendorf tube was shaken for 15 min at room temperature in an over-head shaker. […] By calculating the logarithm of the ratio of the counts in the n-octanol and the PBS phase, the log D7.4 value was determined. […]

KB cells = assay: In vitro cell uptake and internalization studies; assay type: cell-based, human; settings: two hours of incubation, 37° C.
Protocol: Cell Culture: KB cells (human cervical carcinoma cell line, HeLa subclone; ACC-136) were purchased from the German Collection of Microorganisms and Cell Cultures (DSMZ, Braunschweig, Germany). The cells were cultured as monolayers at 37° C. in a humidified atmosphere containing 5% CO2. […] FFRPMI medium was supplemented with 10% heat-inactivated fetal calf serum (FCS, as the only source of folate), L-glutamine and antibiotics (penicillin/streptomycin/fungizone). Routine culture treatment was performed twice a week with EDTA (2.5 mmol/l) in PBS.
KB cells were seeded in 12-well plates to grow over night (˜700,000 cells in 2 ml FFRPMI medium/well). [^18F]-3′-aza-2′-fluorofolic acid ([…], 170 kBq) was added to each well. […] After incubation for 1 h or 2 h at 37° C. the cells were washed three times with PBS to determine total cell uptake of 3′-aza-2′-[^18F]fluorofolic acid. […] The cell suspensions were transferred to 4 ml tubes and the samples were counted in a −counter. After homogenization by vortex, the concentration of proteins was determined for each sample by a Micro BCA Protein Assay kit in order to standardize measured radioactivity to the average content of 0.3 mg protein in a single well. […]

[4] = Stability experiments using liver microsomes (human); assay type: in vitro ADME; settings: 37° C., 1 h, NADPH regenerating system, radio-UPLC
Description: as §1, §2, §3

Nc1nc2ncc(CNc3ccc(C(=O)N[C@@H](CCC(=O)O)C(=O)O)c([18F])n3)nc2c(=O)[nH]1 [3′-aza-2′-[^18F]fluorofolic acid]
Stability in mouse liver microsomes [1]: completely stable | Radiometabolites in liver ([2]; 30 min p.i.): signs of metabolism | Radiometabolites in tumor ([2]; 30 min p.i.): no detectable amounts of metabolites | Radiometabolites in urine ([2]; 30 min p.i.): no detectable amounts of metabolites | Radiometabolites in plasma ([2]; plasma sample 5 min p.i.): no detectable amounts of metabolites | Radiometabolites in plasma ([2]; plasma sample 30 min p.i.): no detectable amounts of metabolites | log D7.4 (partition coefficient in n-octanol/PBS) [3]: −4.2±0.1 | logD ([3]; read-out: log D7.4 (partition coefficient in n-octanol/PBS)): -4.2 ± 0.1 | Total cell uptake (KB cells): about 78.17% | Internalized fraction (KB cells; stripping buffer pH 3): 18.56% | Stability in human liver microsomes [4]: completely stable
